The source of these data is PubChem BioAssay (NCI).

SMILES strings stand for the structures. Where “and” joins values, the source holds several entries; their conditions need not be identical. Equal entries are not always repeated.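 Step 1: Grow cells in 96-well plates. Step 2: Expose to compound for 48 hours at 5 concentrations. Step 3: Interpolate endpoints linearly; if unreached, use highest concentration. GI50 is the concentration that inhibits growth by half. TGI: concentration producing complete growth inhibition.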 Where only a bound is given, the exact number is not on record here.

What all share (experiment): growth of human tumour cells (NCI), 48 h
The subject of assay [1] is A549 NSCLC.
Assay [2] relates to HCT-15 colon.
Assay [3] concerns KM12 colon.
The subject of assay [4] is NCI-H23 lung.
Assay [5] relates to NCI-H522 lung.
The subject of assay [6] is SF-539 CNS.
The test system of assay [7] is SK-OV-3 ovarian.
For assay [8], the system named is SN12C renal.
Assay [9] relates to SNB-19 CNS.
For assay [10], the system named is SW-620 colon.

`C=C1CCC2[C@@H](CCC3[C@]2(C)CCC[C@]3(C)C(=O)OC)C1CCO` (stereo partly specified): the TGI in assay [1] came out at 32.5 µM; in assay [2] it was 27.3 µM; in [3], 25.2 µM; in assay [4], 23.2 µM; in assay [5], 21.6 µM; in assay [6], 26.3 µM. In addition, the TGI was 45.3 µM in assay [7], 27.5 µM in assay [8], 28 µM in [9] and 26.9 µM in assay [10].
Turning to `N.N.NCCCCCCN.O=C([O-])CC(=O)[O-].O=C([O-])CC(=O)[O-].[Pt+4].[Pt+4]`, the GI50 in [1] is above 100 µM; in [2], above 66.1 µM; in [3], above 100 µM; in [4], 57.3 µM; in [5], 29 µM; in assay [6], 73.9 µM. Further, the GI50 in assay [7] was above 100 µM; in [8], 14.5 µM; in [9] it was above 72.1 µM; in assay [10], above 38 µM. Also, the TGI in assay [1], in assay [2], in assay [3], in [4], in [5] and in [6] was above 100 µM each time. The TGI was above 100 µM in assay [7], above 100 µM in assay [8], above 100 µM in assay [9] and above 58.7 µM in assay [10].
On to `CCOC(=O)c1nc(Nc2ccc(Cl)cc2)c2ccccc2n1`, for which the GI50 in [1] is 11.3 µM; in assay [2], 14.9 µM; in assay [3], 7.42 µM; in [4] it was 10.7 µM; in assay [5] it was 10.5 µM; in assay [6] it was 10.6 µM. Also, the GI50 is 10.6 µM in [7], 11.5 µM in assay [8], 13.5 µM in assay [9] and 17.2 µM in assay [10]. In addition, the TGI is 26.2 µM in [1]; above 50 µM in [2]; 15.1 µM in assay [3]; 18.9 µM in assay [4]; 25.8 µM in assay [5]; 20.9 µM in [6]. Moreover, the TGI in assay [7] is 24 µM; in [8], 27.4 µM; in assay [9] it was 43.2 µM; in [10], above 50 µM.
Regarding `CC(C)N1C(NNC(=O)c2cnccn2)=NS(=O)(=O)c2ccccc21`, the GI50 in [1], in assay [2], in [3], in assay [4], in [5] and in [6] was above 100 µM in each case. Also, the GI50 in assay [7], in [8], in [9] and in assay [10] was above 100 µM each time. The TGI in assay [1], in [2], in [3], in [4], in assay [5] and in assay [6] was above 100 µM throughout. Moreover, the TGI in assay [7], in [8], in [9] and in assay [10] was above 100 µM each time.
As to `COc1ccc(/C=C2\CCC(CN(C)C)C2=O)cc1OC` (stereo unspecified), the TGI in assay [1] is 37.4 µM; in assay [2], 8.81 µM; in assay [3], 10.8 µM; in assay [4], 32.3 µM; in assay [5], 4.23 µM; in assay [6], 25 µM. In addition, the TGI in assay [7] was 33.7 µM; in assay [8] it was 8.35 µM; in assay [9], 30.6 µM; in assay [10] it was 4.44 µM.
`OCC1OC(n2cnc3c(=S)nc[nH]c32)C(O)C1O` (stereo unspecified): the GI50 in assay [1] is 42.5 µM; in [2] it was 6.62 µM; in assay [3], 7.46 µM; in assay [4] it was 4.15 µM; in assay [5], 9.27 µM; in [6], 3.3 µM. The GI50 is 1.25 µM in assay [7], 34.3 µM in assay [8], above 65.2 µM in assay [9] and 7.29 µM in assay [10]. For the same molecule, the TGI in assay [1], in assay [2], in assay [3], in [4], in [5] and in assay [6] was above 2500 µM each time. Also, the TGI in assay [7] was 1060 µM and > 47.4 µM; in assay [8], above 2500 µM; in assay [9], above 1960 µM; in [10] it was above 2500 µM.
As for `CC(=O)NC1CC2Oc3ccc(C)cc3C(C)(O2)C1O` (stereo unspecified), the TGI in assay [1], in [2], in assay [3], in assay [4], in assay [5] and in assay [6] was above 100 µM each time. Besides, the TGI in assay [7], in [8], in assay [9] and in [10] was above 100 µM in each case.
With `COC(=O)C1=C(C(=O)OC)SC(=C(N=Nc2ccccc2)c2ccccc2)S1`, the TGI in assay [1], in [2], in assay [3], in assay [4], in assay [5] and in [6] was above 100 µM each time. Besides, the TGI in assay [7], in [8], in [9] and in [10] was above 100 µM throughout.
Turning to `C/C=C/C=C/CCCCCCCCCCCCCC1(OC)C=CC(CC(=O)OC)OO1` (stereo unspecified), the GI50 in assay [1] was 5.57 µM; in assay [2], 3.08 µM; in assay [3] it was 1.56 µM; in [4], 4.3 µM; in [5], 1.58 µM; in [10], 1.99 µM. Besides, the TGI in assay [1] turned out to be 19.7 µM; in assay [2], 11.2 µM; in assay [3], 3.13 µM; in assay [4], 14 µM; in assay [5], 3.09 µM; in [6] it was 28.6 µM. Further, the TGI in assay [7] turned out to be 33.9 µM; in [8], 26.3 µM; in [9] it was 31.7 µM; in assay [10], 4.34 µM.
